Among the test systems are NCI/ADR-RES ovarian; T-47D breast; OVCAR-8 ovarian; HS 578T breast; UO-31 renal; NCI-H23 lung.
What all share (experiment): growth of human tumour cells (NCI), 48 h

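Exposure lasted 48 hours, with cells grown in 96-well plates and compounds tested at five concentrations. At the GI50, growth is halved. The concentration for full growth arrest is given as TGI.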

Here are results for 13 compounds from PubChem BioAssay (NCI).

For `CN(C)C/C=C/C(=O)Nc1cc2c(Nc3ccc(F)c(Cl)c3F)ncnc2cc1OCCOC(F)F`, the GI50 is 0.499 µM with NCI/ADR-RES ovarian; less than 0.0127 µM with T-47D breast; 0.972 µM in the assay with OVCAR-8 ovarian; 764 nM in the assay with HS 578T breast; less than 0.01 µM in the assay on UO-31 renal; 1.23 µM in the assay on NCI-H23 lung. Also, the TGI in the assay with NCI/ADR-RES ovarian worked out at 3.74 µM; in the assay on T-47D breast it was 0.458 µM; in the assay with OVCAR-8 ovarian it was 9.9 µM; in the assay on HS 578T breast, 6.19 µM; in the assay with UO-31 renal it was 1.78 µM; in the assay with NCI-H23 lung, 3.82 µM.

As to `CN1C(=O)[C@@H](NC(=O)[C@H](CCC(F)(F)F)[C@H](CCC(F)(F)F)C(N)=O)N=C(c2ccccc2)c2ccccc21`, the GI50 with NCI/ADR-RES ovarian was greater than 100 µM; in the assay with T-47D breast, 46.2 µM; in the assay on OVCAR-8 ovarian, greater than 100 µM; in the assay with HS 578T breast it was greater than 100000 nM; in the assay with UO-31 renal, 49 µM; in the assay on NCI-H23 lung, greater than 100 µM. The TGI with NCI/ADR-RES ovarian, in the assay on T-47D breast, in the assay on OVCAR-8 ovarian, in the assay with HS 578T breast, in the assay on UO-31 renal and in the assay on NCI-H23 lung was greater than 100 µM in each case.

Regarding `O=C(Nc1ccccc1O)c1ccc(CNc2ccnc(C(F)(F)F)c2)cc1`, the GI50 with NCI/ADR-RES ovarian is 2.41 µM; in the assay with T-47D breast, 2.5 µM; in the assay on OVCAR-8 ovarian it was 5.15 µM; in the assay with HS 578T breast, 2590 nM; in the assay with UO-31 renal it was 2.15 µM; with NCI-H23 lung, 4.72 µM. The TGI is 54.4 µM in the assay on NCI/ADR-RES ovarian; 24.8 µM with T-47D breast; greater than 100 µM in the assay with OVCAR-8 ovarian; 32.9 µM in the assay with HS 578T breast; 14 µM in the assay with UO-31 renal; 81.4 µM with NCI-H23 lung.

On to `CCn1cc(-c2ccnc3[nH]ccc23)c(-c2cccc(NC(=O)Nc3ccc(OCc4ccccc4)cc3)c2)n1`, for which the GI50 is greater than 25 µM in the assay with NCI/ADR-RES ovarian; 6.65 µM in the assay on T-47D breast; 15.7 µM in the assay on OVCAR-8 ovarian; 4850 nM with HS 578T breast; 15 µM in the assay with UO-31 renal; 16.5 µM in the assay with NCI-H23 lung. Also, the TGI with NCI/ADR-RES ovarian, in the assay on T-47D breast, in the assay on OVCAR-8 ovarian, with HS 578T breast, in the assay with UO-31 renal and in the assay on NCI-H23 lung was greater than 25 µM in each case.

In the case of `COc1ccc(/C=C2\CC(C)CC3C2=NN(C(C)=O)C3c2ccc(OC)cc2)cc1` (stereo not drawn), the GI50 in the assay on NCI/ADR-RES ovarian was 21.3 µM; with T-47D breast, 25.7 µM; in the assay on OVCAR-8 ovarian, 28.1 µM; in the assay with HS 578T breast it was 22100 nM; with UO-31 renal, 19 µM; in the assay with NCI-H23 lung it was 19.6 µM. Moreover, the TGI with NCI/ADR-RES ovarian is 73.2 µM; in the assay with T-47D breast it was greater than 100 µM; in the assay on OVCAR-8 ovarian, greater than 100 µM; in the assay with HS 578T breast, 60.6 µM; in the assay with UO-31 renal, 64.8 µM; in the assay with NCI-H23 lung, 45.2 µM.

For `Fc1ccc(-c2ncn(C3CCNCC3)c2-c2ccnc(Oc3ccc(F)c(F)c3)n2)cc1`, the GI50 in the assay with NCI/ADR-RES ovarian was 8.83 µM; with T-47D breast, 4.7 µM; in the assay with OVCAR-8 ovarian it was 4.96 µM; with HS 578T breast, 9580 nM; in the assay on UO-31 renal it was 6.25 µM; in the assay with NCI-H23 lung it was greater than 17.8 µM. For the same compound, the TGI in the assay on NCI/ADR-RES ovarian was greater than 25 µM; with T-47D breast, 10.2 µM; in the assay on OVCAR-8 ovarian, 10.9 µM; with HS 578T breast, greater than 18.4 µM; in the assay with UO-31 renal, greater than 25 µM; in the assay with NCI-H23 lung, greater than 25 µM.

With `CCN1C2=NCCN2S(=O)(=O)c2ccccc21`, the TGI with NCI/ADR-RES ovarian, with T-47D breast, in the assay with OVCAR-8 ovarian, in the assay with HS 578T breast, in the assay with UO-31 renal and with NCI-H23 lung was greater than 100 µM each time.

For the compound `Cc1cc(Nc2c3ccccc3nc3ccccc23)ccc1NS(C)(=O)=O`, the GI50 is 5.63 µM in the assay with NCI/ADR-RES ovarian; 5.51 µM in the assay on T-47D breast; 3.41 µM with OVCAR-8 ovarian; 2450 nM with HS 578T breast; 1.9 µM in the assay with UO-31 renal. Further, the TGI in the assay with NCI/ADR-RES ovarian amounted to 52.5 µM; in the assay on T-47D breast, 24.5 µM; with OVCAR-8 ovarian it was 21.7 µM; in the assay on HS 578T breast, 11.7 µM; with UO-31 renal it was 8.76 µM.

As to `Nc1ccccc1NC(=O)c1ccc(CCCC(=O)Nc2ccc(C3CC3N)cc2)cc1` (stereo not drawn), the GI50 was 45.7 µM in the assay on NCI/ADR-RES ovarian; 0.562 µM in the assay on T-47D breast; 1.32 µM with OVCAR-8 ovarian; 2820 nM in the assay on HS 578T breast; 4.62 µM in the assay on UO-31 renal; 2.29 µM in the assay with NCI-H23 lung. The TGI with NCI/ADR-RES ovarian was greater than 100 µM; in the assay on T-47D breast it was greater than 100 µM; in the assay with OVCAR-8 ovarian it was greater than 100 µM; with HS 578T breast, greater than 100 µM; in the assay on UO-31 renal it was 20.6 µM; in the assay on NCI-H23 lung, 33.8 µM.

Turning to `CCCCCCCCCCCCCCCC[N+](C)(CCO)Cc1cnc[nH]1` (stereo not drawn), the GI50 in the assay with NCI/ADR-RES ovarian was 14.7 µM; in the assay with T-47D breast it was 2.8 µM; with HS 578T breast it was 2850 nM; in the assay with UO-31 renal, 23 µM; in the assay on NCI-H23 lung, 0.858 µM. In addition, the TGI in the assay on NCI/ADR-RES ovarian is 42.4 µM; with T-47D breast it was 28.1 µM; in the assay with HS 578T breast, 35.9 µM; with UO-31 renal it was greater than 100 µM; with NCI-H23 lung, 5.3 µM.

As for `Cc1ccc(C(=O)Nc2ccc(S(=O)(=O)O)c3cc(S(=O)(=O)O)cc(S(=O)(=O)O)c23)cc1NC(=S)Nc1cc(C(=O)Nc2ccc(S(=O)(=O)O)c3cc(S(=O)(=O)O)cc(S(=O)(=O)O)c23)ccc1C`, the TGI with OVCAR-8 ovarian, in the assay with UO-31 renal and in the assay with NCI-H23 lung was greater than 75 µM in each case.

With `OC(COc1ccc(F)cc1)Cn1cnc2c(Cl)ncnc21` (stereo not drawn), the GI50 was greater than 100 µM in the assay on NCI/ADR-RES ovarian; greater than 100 µM in the assay with T-47D breast; 78.6 µM with OVCAR-8 ovarian; 37900 nM in the assay with HS 578T breast; greater than 100 µM with UO-31 renal. Moreover, the TGI with NCI/ADR-RES ovarian, in the assay with T-47D breast, in the assay on OVCAR-8 ovarian, in the assay on HS 578T breast and in the assay on UO-31 renal was greater than 100 µM throughout.

Consider `O=Cc1ccc(-c2ccc(-c3nc4ccccc4o3)cc2)s1`, for which the GI50 is 27.2 µM in the assay with NCI/ADR-RES ovarian; 22.6 µM in the assay with T-47D breast; 35 µM with OVCAR-8 ovarian; 38.5 µM with UO-31 renal; 30.2 µM with NCI-H23 lung. The TGI in the assay with NCI/ADR-RES ovarian was 79.4 µM; with T-47D breast, greater than 100 µM; with OVCAR-8 ovarian it was greater than 100 µM; with UO-31 renal, greater than 100 µM; in the assay on NCI-H23 lung, greater than 100 µM.
